Earlier results as cited in patent publication US20090162444A1, “RALOXIFENE COMPOSITION” (priority 2007, published 2009).
Structures can show the parent of a compound that is named as a salt.

Legend:
[1] = not given; remark: listed apart in the source
[2] = oral administration

SMILES | solubility in water [µg/mL] | solubility in gastric and intestinal fluid [1] | absolute bioavailability [2]
O=C(c1ccc(OCCN2CCCCC2)cc1)c1c(-c2ccc(O)cc2)sc2cc(O)ccc12 [Raloxifene hydrochloride, raloxifene hydrochloride] | 627 | very slightly soluble | 
O=C(c1ccc(OCCN2CCCCC2)cc1)c1c(-c2ccc(O)cc2)sc2cc(O)ccc12 [Raloxifene, (6-hydroxy-2-(4-hydroxy-phenyl)benzo[b]thien-3-yl)-(4-(2-(1-piperidinyl)ethoxy)phenyl)methanone] |  |  | about 2%
